Results from ChEMBL document CHEMBL1135159, “Pyrazolo[3,4-d]pyrimidines containing an extended 3-substituent as potent inhibitors of Lck -- a selectivity insight” (Bioorg Med Chem Lett, 2002).

Experiments:
Mus musculus [1] = assay: Tested in vivo for inhibition ofTCR stimulated (alpha-CD3 mAb) IL-2 production in mice after oral dosing for 18 hr; assay type: functional; design: concentration or dose not given beside the values
Mus musculus [2] = assay: Tested in vivo for inhibition ofTCR stimulated (alpha-CD3 mAb) IL-2 production in mice after oral dosing; assay type: functional
Mus musculus [3] = assay: Tested in vivo for inhibition ofTCR stimulated (alpha-CD3 mAb) IL-2 production in mice after oral dosing for 8 hr; assay type: functional; design: concentration or dose not given beside the values
[4] = biological target: T1, Vascular endothelial growth factor receptor 2 (Homo sapiens, UniProt P35968); assay: Inhibition of human VEGF-receptor 2 (kdr) kinase.
T1 sequence (P35968 whole entry): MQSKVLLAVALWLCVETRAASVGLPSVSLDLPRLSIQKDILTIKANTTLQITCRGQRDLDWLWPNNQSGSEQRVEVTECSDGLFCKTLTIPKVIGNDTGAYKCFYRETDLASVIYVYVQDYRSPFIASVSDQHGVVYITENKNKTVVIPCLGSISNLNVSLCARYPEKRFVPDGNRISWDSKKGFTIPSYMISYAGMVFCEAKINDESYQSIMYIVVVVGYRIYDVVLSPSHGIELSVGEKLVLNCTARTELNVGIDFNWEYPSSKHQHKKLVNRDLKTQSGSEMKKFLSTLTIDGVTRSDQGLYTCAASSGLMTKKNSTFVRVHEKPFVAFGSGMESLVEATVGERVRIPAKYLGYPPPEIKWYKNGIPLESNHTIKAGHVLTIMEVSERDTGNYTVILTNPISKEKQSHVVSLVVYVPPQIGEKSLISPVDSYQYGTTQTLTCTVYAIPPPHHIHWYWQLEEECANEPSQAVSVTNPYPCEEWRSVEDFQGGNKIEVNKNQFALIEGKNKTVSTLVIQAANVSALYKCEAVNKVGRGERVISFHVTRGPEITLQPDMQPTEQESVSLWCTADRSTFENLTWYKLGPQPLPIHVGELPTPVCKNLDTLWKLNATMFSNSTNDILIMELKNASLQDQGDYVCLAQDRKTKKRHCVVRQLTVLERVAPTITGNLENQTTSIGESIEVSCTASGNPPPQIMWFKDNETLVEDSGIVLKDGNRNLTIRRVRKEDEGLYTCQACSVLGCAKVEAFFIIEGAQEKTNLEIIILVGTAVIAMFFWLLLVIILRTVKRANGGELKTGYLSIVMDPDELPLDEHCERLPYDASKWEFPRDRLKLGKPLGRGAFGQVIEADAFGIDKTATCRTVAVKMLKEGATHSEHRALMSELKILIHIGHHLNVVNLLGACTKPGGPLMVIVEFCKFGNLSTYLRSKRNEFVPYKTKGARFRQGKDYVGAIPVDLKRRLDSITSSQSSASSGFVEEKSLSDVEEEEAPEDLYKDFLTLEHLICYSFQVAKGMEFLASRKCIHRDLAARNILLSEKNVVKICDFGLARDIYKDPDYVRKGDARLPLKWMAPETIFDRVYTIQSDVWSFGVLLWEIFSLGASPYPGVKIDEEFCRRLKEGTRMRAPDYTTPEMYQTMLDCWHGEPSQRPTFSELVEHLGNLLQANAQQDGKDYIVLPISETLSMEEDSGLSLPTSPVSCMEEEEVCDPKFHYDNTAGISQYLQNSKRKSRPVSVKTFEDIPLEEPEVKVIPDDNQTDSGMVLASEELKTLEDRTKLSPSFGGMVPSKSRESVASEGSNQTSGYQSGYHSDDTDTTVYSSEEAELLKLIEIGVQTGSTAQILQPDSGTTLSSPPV

Homo sapiens = species on record: Homo sapiens; assay: Inhibition of alpha-CD3 mAb induced IL-2 production in human whole blood; assay type: functional, organism-based
[5] = Compound was evaluated for pharmacokinetic parameter maximum time period; assay type: ADME, organism-based; conditions: rat, in vivo
Rattus norvegicus [6] = species on record: Rattus norvegicus; assay: Compound was evaluated for pharmacokinetic parameter maximum plasma concentration; assay type: ADME, organism-based; conditions: in vivo
[7] = biological target: T1, Vascular endothelial growth factor receptor 2; assay: Inhibition of Vascular endothelial growth factor receptor 2
Rattus norvegicus [8] = assay: In vivo clearance after 5 mg/kg dose; assay type: ADME, organism-based; design: dose 5 mg/kg
[9] = Compound was evaluated for pharmacokinetic parameter percent bioavailability at 8 h; assay type: ADME, organism-based; conditions: rat, in vivo
[10] = Compound was evaluated for pharmacokinetic parameter percent bioavailability at 18 h; assay type: ADME, organism-based; conditions: rat, in vivo
[11] = Compound was evaluated for pharmacokinetic parameter volume of distribution; assay type: ADME, organism-based; conditions: rat, in vivo
[12] = biological target: Tyrosine-protein kinase Lck (Homo sapiens, UniProt P06239); assay: Inhibition of human p56 Lck tyrosine kinase
Sequence of Tyrosine-protein kinase Lck (P06239 whole entry): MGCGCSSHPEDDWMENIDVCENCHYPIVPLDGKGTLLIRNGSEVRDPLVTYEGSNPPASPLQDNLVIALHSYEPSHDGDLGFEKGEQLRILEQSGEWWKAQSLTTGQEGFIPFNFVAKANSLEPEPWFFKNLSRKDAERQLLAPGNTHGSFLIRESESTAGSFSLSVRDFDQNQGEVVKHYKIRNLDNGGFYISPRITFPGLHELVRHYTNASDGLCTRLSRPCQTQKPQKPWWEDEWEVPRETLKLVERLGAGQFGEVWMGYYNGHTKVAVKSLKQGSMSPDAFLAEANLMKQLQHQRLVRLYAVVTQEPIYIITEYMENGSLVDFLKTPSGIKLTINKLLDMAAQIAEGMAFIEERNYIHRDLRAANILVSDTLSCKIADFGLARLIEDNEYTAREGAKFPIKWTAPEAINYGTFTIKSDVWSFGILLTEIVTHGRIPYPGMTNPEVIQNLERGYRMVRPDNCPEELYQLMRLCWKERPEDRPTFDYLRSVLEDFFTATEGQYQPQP

[13] = biological target: Proto-oncogene tyrosine-protein kinase Src (Homo sapiens, UniProt P12931); assay: Inhibition of Src protein tyrosine kinase
Sequence of Proto-oncogene tyrosine-protein kinase Src (P12931 2-536 limits assumed): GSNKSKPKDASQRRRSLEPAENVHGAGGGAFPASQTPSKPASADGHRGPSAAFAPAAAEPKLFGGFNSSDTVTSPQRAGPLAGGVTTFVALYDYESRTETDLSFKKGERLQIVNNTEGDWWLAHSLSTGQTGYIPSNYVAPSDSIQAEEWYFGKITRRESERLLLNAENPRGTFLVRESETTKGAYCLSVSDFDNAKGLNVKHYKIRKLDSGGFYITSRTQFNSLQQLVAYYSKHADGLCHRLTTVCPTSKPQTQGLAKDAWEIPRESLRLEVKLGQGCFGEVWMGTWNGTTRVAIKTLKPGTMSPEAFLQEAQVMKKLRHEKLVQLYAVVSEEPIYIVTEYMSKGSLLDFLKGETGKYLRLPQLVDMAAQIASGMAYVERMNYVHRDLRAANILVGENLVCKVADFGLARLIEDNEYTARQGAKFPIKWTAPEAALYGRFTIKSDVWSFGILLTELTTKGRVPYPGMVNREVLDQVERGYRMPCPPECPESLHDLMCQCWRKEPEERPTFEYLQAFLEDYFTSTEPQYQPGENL

Angiopoietin-1 receptor = Angiopoietin-1 receptor (Homo sapiens, UniProt Q02763); assay: Inhibition of TIE-2 kinase
Sequence of Angiopoietin-1 receptor (Q02763 whole entry): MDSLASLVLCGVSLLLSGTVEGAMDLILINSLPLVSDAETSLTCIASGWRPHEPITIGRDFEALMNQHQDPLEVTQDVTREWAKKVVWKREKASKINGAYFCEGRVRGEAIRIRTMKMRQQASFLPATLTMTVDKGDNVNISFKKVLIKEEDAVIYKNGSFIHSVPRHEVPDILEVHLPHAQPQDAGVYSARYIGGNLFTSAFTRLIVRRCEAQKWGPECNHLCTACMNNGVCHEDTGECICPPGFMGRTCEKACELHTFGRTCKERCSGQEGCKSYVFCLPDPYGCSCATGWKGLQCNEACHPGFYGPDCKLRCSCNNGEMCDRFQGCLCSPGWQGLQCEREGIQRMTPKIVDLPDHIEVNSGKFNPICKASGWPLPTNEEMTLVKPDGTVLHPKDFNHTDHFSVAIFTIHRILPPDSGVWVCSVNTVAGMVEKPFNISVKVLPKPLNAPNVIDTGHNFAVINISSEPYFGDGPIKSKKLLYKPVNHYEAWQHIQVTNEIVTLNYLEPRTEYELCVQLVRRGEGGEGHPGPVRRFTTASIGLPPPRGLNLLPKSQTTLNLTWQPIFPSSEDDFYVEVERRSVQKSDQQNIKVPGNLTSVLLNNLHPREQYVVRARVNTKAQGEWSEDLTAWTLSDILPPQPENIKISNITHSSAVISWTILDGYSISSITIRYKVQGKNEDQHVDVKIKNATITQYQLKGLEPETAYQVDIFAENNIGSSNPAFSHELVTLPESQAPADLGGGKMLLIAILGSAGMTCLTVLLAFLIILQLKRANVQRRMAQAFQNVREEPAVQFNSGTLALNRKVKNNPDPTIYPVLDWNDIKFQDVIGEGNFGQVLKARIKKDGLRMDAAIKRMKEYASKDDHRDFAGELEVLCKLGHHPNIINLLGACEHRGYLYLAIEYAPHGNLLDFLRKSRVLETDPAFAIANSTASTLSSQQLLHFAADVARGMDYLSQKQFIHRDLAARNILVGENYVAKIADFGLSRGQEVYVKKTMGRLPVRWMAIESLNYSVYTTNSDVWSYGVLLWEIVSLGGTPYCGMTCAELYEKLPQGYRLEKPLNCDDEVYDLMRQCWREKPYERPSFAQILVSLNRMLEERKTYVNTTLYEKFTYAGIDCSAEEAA

SMILES | IC50 [4] | IC50 (Homo sapiens) | Inhibition (Mus musculus [1]) | ED50 (Mus musculus [2]) | ED90 (Mus musculus [2]) | Inhibition (Mus musculus [3]) | further results
COc1cc(-c2nn([C@H]3CC[C@H](N4CCN(C)CC4)CC3)c3ncnc(N)c23)ccc1NC(=O)CCc1ccccc1 | > 50000 nM | 38 nM | <10% | 5 mg/kg | 30 mg/kg | 63% | –
COc1cc(-c2nn([C@H]3CC[C@H](N4CCN(C)CC4)CC3)c3ncnc(N)c23)ccc1NS(=O)(=O)c1ccccc1 | > 50000 nM | – | – | – | – | – | –
COc1cc(Cc2nn([C@H]3CC[C@H](N4CCN(C)CC4)CC3)c3ncnc(N)c23)ccc1NC(=O)[C@@H]1C[C@H]1c1ccccc1 | > 50000 nM | – | – | – | – | – | –
COc1cc(-c2nn([C@H]3CC[C@H](N4CCN(C)CC4)CC3)c3ncnc(N)c23)ccc1NC(=O)c1cc2ccccc2o1 | > 50000 nM | 6 nM | <10% | 8.5 mg/kg | 12.5 mg/kg | 48% | –
CN1CCN([C@H]2CC[C@H](n3nc(-c4ccc(Oc5ccccc5)cc4)c4c(N)ncnc43)CC2)CC1 | – | – | 49% | 1.5 mg/kg | 6 mg/kg | 84% | Tmax [5]: 1.5 h; Cmax (Rattus norvegicus [6]): 0.62 uM l-1; IC50 [7]: 5320 nM; Clp (Rattus norvegicus [8]): 20 mL/min/kg; half-life [9]: 5.2 h; bioavailability [10]: 69%; Vd [11]: 9.6 L/kg; IC50 [12]: 40 nM
CN1CCN([C@H]2CC[C@H](n3cc(-c4ccc(Oc5ccccc5)cc4)c4c(N)ncnc43)CC2)CC1 | – | – | – | 2.5 mg/kg | – | – | IC50 [13]: 42 nM; IC50 (Angiopoietin-1 receptor): 250 nM; IC50 [12]: 15 nM
COc1cc(-c2nn([C@H]3CC[C@H](N4CCN(C)CC4)CC3)c3ncnc(N)c23)ccc1NCc1ccccc1 | – | – | – | – | – | – | IC50 [7]: > 50000 nM; IC50 [12]: 55 nM
COc1cc(-c2nn([C@H]3CC[C@H](N4CCN(C)CC4)CC3)c3ncnc(N)c23)ccc1NC(=O)Nc1ccccc1 | 263 nM | – | – | – | – | – | –
CN1CCN([C@H]2CC[C@H](n3nc(-c4ccc(C(=O)c5ccccc5)cc4)c4c(N)ncnc43)CC2)CC1 | > 50000 nM | – | – | – | – | – | –
COc1cc(-c2nn([C@H]3CC[C@H](N4CCN(C)CC4)CC3)c3ncnc(N)c23)ccc1NC(=O)OCc1ccccc1 | 34200 nM | 2 nM | 14% | 3 mg/kg | 14 mg/kg | 51% | –

Further lines, with some results ahead:

IC50 [4] | IC50 (Homo sapiens) | SMILES | Inhibition (Mus musculus [1]) | ED50 (Mus musculus [2]) | ED90 (Mus musculus [2]) | Inhibition (Mus musculus [3]) | further results
34600 nM | 8 nM | COc1cc(-c2nn([C@H]3CC[C@H](N4CCN(C)CC4)CC3)c3ncnc(N)c23)ccc1NC(=O)CC(C)(C)c1ccccc1 | 22% | 2 mg/kg | 12.5 mg/kg | 98% | –
> 50000 nM | 50 nM | COc1cc(-c2nn([C@H]3CC[C@H](N4CCN(C)CC4)CC3)c3ncnc(N)c23)ccc1NC(=O)c1ccccc1 | <10% | 9 mg/kg | 23 mg/kg | 37% | –
> 50000 nM | – | COc1cc(-c2nn([C@H]3CC[C@H](N4CCN(C)CC4)CC3)c3ncnc(N)c23)ccc1NC(=O)C(C)(C)Cc1ccccc1 | – | – | – | – | –
435 nM | – | CN1CCN([C@H]2CC[C@H](n3nc(-c4ccc(NCc5cc6ccccc6[nH]5)cc4)c4c(N)ncnc43)CC2)CC1 | – | – | – | – | –
3810 nM | 135 nM | CN1CCN([C@H]2CC[C@H](n3nc(-c4ccc(Nc5ccccc5)cc4)c4c(N)ncnc43)CC2)CC1 | <10% | 2.5 mg/kg | 10.7 mg/kg | 95% | –
